Assay results published in patent publication US20250099475A1, “METHODS OF TREATING HYPERTENSION BY PERIODIC SUPPRESSION OF ALDOSTERONE SYNTHASE” (Mineralys Therapeutics, Inc., priority 2022, published 2025).

Key:
[1] = test system: human adrenocortical NCI-H295R cell culture; experiment: Inhibitory effects on adrenal steroidogenesis; assay type: cell-based; conditions: 3 days of incubation
Description: Multiple concentrations of Compound A and aminoglutethimide (positive control) were evaluated in a human adrenocortical NCI-H295R cell culture. The effect of Compound A on adrenal steroidogenesis was determined by measurement of 12 steroid hormones in the culture medium after 3 days of incubation. The following steroids were measured: pregnenolone, 11-deoxycortisol, 17α-hydroxypregnenolone, 11-DOC, dehydroepiandrosterone, corticosterone, progesterone, cortisol, 17α-hydroxyprogesterone, aldosterone, androstenedione, and testosterone.

[2] = target: T1, CYP 11β2 beta hydroxylase (Homo sapiens, UniProt P19099); experiment: PKPD modeling of SAD study data: time above IC50; assay type: in vivo; conditions: aldosterone
T1 construct: estimated based on PKPD modeling of data from the SAD study; from tissue; host or cells: adrenal cortex of human study subjects (in vivo)
T1 sequence (P19099 25-503): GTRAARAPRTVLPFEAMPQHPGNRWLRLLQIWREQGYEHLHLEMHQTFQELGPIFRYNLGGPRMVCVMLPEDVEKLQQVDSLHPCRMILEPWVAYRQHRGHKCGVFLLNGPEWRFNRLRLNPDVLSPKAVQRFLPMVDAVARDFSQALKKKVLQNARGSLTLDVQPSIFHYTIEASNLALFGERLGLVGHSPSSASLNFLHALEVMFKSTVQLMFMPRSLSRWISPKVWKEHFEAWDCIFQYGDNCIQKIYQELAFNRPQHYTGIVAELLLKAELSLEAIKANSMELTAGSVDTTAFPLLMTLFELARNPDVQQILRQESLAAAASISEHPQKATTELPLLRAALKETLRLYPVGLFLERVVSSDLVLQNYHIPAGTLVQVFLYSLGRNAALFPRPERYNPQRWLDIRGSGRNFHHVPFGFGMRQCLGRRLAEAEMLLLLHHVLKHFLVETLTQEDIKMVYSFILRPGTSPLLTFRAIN
Description: A randomized, double-blinded, placebo-controlled study was conducted in which 116 patients were randomized and 87 received Compound A HBr.
A single ascending dose (SAD) study was conducted with the following dosing amounts tested: • (a) 5 mg • (b) 10 mg • (c) 20 mg • (d) 50 mg • (e) 100 mg • (f) 200 mg • (g) 400 mg • (h) 800 mg.
The IC50 of inhibition of CYP […] by Compound A HBr and the time above IC50 for each dosing amount were estimated based on PKPD modeling of data from the SAD study.

| SMILES | reduction in aldosterone secretion ([1]; concentrations ≥0.11 μmol/L) | reduction in corticosterone ([1]; concentrations ≥1 μmol/L) | reductions in pregnenolone, progesterone, 17α-hydroxyprogesterone, 11-DOC, corticosterone, and cortisol ([1]; top concentration 3 μmol/L) | % 24 hr above IC50 ([2]; 12.5 mg BID) | % 24 hr above IC50 ([2]; 12.5 mg QD) | % 24 hr above IC50 ([2]; 25 mg BID) | % 24 hr above IC50 ([2]; 50 mg QD) | % 24 hr above IC50 ([2]; 100 mg QD) |
| --- | --- | --- | --- | --- | --- | --- | --- | --- |
| CC(=O)N[C@H]1CC[C@H](NC(=O)CN2CCN(c3nncc(-c4ccc(C)cc4)n3)CC2)CC1 [Compound A] | > 50% | > 50% | < 50% | – | – | – | – | – |
| CC(=O)N[C@H]1CC[C@H](NC(=O)CN2CCN(c3nncc(-c4ccc(C)cc4)n3)CC2)CC1 [Compound A HBr] | – | – | – | 25% | 8% | 52% | 38% | 56% |
